Columns and labels:
[1] = tested on: benzo[a]pyrene-induced transformation of RTE cells; assay: rat tracheal epithelial (RTE) cell focus inhibition assay; type: cell-based
Method: (§1) The rat tracheal epithelial (RTE) cell focus inhibition assay was used to identify potential chemopreventive activity of tanshinone IIA. Tanshinone IIA was evaluated for its ability to inhibit benzo[a]pyrene-induced transformation of RTE cells. Tracheal epithelial cells were isolated from 8-12 week-old male Fisher 344 rats and plated on collagen coated dishes. Initially, a nontoxic concentration of tanshinone IIA was determined by treating RTE cells with a range of 1.5 nM to 3000 nM of tanshinone IIA. […] About 10% cells survived at a concentration of 1500 nM. Freshly isolated RTE cells were exposed to benzo[a]pyrene alone or in combination with tanshinone IIA. Benzo[a]pyrene was washed out after an exposure of 24 h. The maximal non-toxic concentration and four half log concentrations of tanshinone IIA (300 nM to 3 nM) were used for the chemopreventive assay. After 30 days in culture, transformed foci were scored and inhibition was quantitated. […] A positive control of retinoic acid inhibited the transformation frequency by 50% at 1 nM.

RTE cells = assay: toxicity of tanshinone IIA to RTE cells; type: cell-based, rat
Method: as §1

`Cc1coc2c1C(=O)C(=O)c1c-2ccc2c1CCCC2(C)C` [Tanshinone IIA] was tested, and the “prevention of benzo[a]pyrene-induced transformation of rat tracheal epithelial cells” value ([1]; 3 nM) was “totally prevented”, the “inhibition of transformation frequency” value ([1]; each dose level, 300 nM to 3 nM, benzo[a]pyrene exposure 24 h, foci scored after 30 days in culture) was “complete inhibition” and the cells survived (RTE cells; 1500 nM) was “About 10%”. The “concentration found nontoxic to RTE cells” value (RTE cells; tested range 1.5 nM to 3000 nM) was at most 150 nM and the “toxicity to the cells” value (RTE cells; very low concentrations (3 nM)) was “nontoxic”.
`CC1=C(/C=C/C(C)=C/C=C/C(C)=C/C(=O)O)C(C)(C)CCC1` [retinoic acid, reference compound] gave an inhibition at 0.001 µM ([1]; Rattus norvegicus, 1 nM, positive control, read-out: inhibition of transformation frequency) of 50%.

Reference: patent publication US20070243273A1, “Reduction of the Deleterious Effects of Tobacco Smoking” (SaviPu Pharmaceuticals, priority 2006, published 2007)
